Source: patent US12594228B2, “Composition for hair protection or hair strengthening” (AMOREPACIFIC CORPORATION, priority 2024, dated 2026)

Experiments:
[1] = test system: hair structural proteins; test: Denaturation enthalpy of hair structural proteins by DSC; settings: bleached hair, test substance 0.01 wt % in purified water and ethanol (80 wt %), 30 minutes; FIG. 3
Procedure: The denaturation enthalpy of hair structural proteins was compared according to whether or not the test substance was treated using a DSC (Differential Scanning calorimetry) analyzer. DSC is used as an analysis method to confirm the stability of hair structural proteins. Damage to the hair reduces the stability of hair structural proteins and decreases the enthalpy of denaturation. Specifically, bleached hair tresses (1 g. manufactured by Beaulax) were prepared. The hair tresses were washed using a basic shampoo without a conditioning function, rinsed for 1 minute, and dried for 2 minutes. The dried hair tresses (1 g) were immersed in 100 g of a solution in which the test substance (mixture of Example 1 in Table 2 above) was dissolved at 0.01 wt % (at this time, the solution is a solution in which the mixture of Example 1 (0.01 wt %) is dissolved in purified water (residue) and ethanol (80 wt %)) for 30 minutes. The immersed hair tresses were rinsed in running water for 1 minute and then naturally dried for more than 12 hours. Each treated hair tress was cut into 1 mm lengths, placed in an aluminum high-pressure capsule with 3-5 mg of the cut hair tress and 6-15 mg of distilled water, and combined. […] The denaturation enthalpies of the prepared DSC samples were measured using a DSC (Discovery DSC 250, TA Instruments) device (50-190 degrees, 10 degrees/min).
The denaturation enthalpy was measured by the same method as in ‘Experimental Example 2. (2) Measurement of denaturation enthalpy’, but the denaturation enthalpy was compared by applying applied CWK tripeptide as a test substance to hair.
The denaturation enthalpy was measured by the same method as in ‘Experimental Example 2. (2) Measurement of denaturation enthalpy’, but the denaturation enthalpy was compared by applying a tripeptide with palmitic acid covalently bonded to the N-terminus (i.e. palmitoyl tripeptide) to hair as the test substance.

[2] = Tensile strength of bleached hair tresses treated with test substance (MTT175); design: species or system human; settings: test substance 0.01 wt % in purified water and ethanol (80 wt %), about 30 minutes; FIG. 4, FIG. 5
Procedure: The compositions in Table 2 above were applied to human hair to compare tensile strength.
(§1) Specifically, bleached hair tresses (1 g, manufactured by Beaulax) were prepared. The hair tresses were washed using a basic shampoo without conditioning function, rinsed for 1 minute, and dried for 2 minutes. The dried hair tresses (1 g) were immersed in 100 g of a solution in which the test substance (the mixture of Example 1 or the mixture of Comparative Example 1 in Table 2 above) was dissolved at 0.1 wt % (wherein the solution is a solution in which the test substance (0.1 wt %) is dissolved in purified water (remaining amount) for about 30 minutes. The immersed hair tresses were rinsed in running water for 1 minute and then naturally dried for more than 12 hours. Thirty hair strands were randomly selected from each hair tresses treated with the test substance. Thirty hair strands were randomly selected from the control hair tresses that were not treated with the test substance. The tensile strength of each selected hair was measured using an MTT175 (manufactured by DiaStron) device.
The tensile strength was compared by applying the test substance (the above 5 types of tripeptides) to the hair using the same method as in ‘Experimental Example 2. (1) Measurement of tensile strength’.
as §1, with “(synthesized tripeptide)” for “(the mixture of Example 1 or the mixture of Comparative Example 1 in Table 2 above)”, “0.01” for “0.1”, “(0.01” for “(0.1”, “(residue) and ethanol (80 wt %))” for “(remaining amount)”
Specifically, the tripeptide was synthesized using the same method as the peptide synthesis method of ‘Experimental Example 3’ above, but palmitic acid was added to the N-terminus of the peptide (reagents: HBTU (Hexafluorophosphate Benzotriazole), NMM (N-Methylmorpholine), DMF (Dimethylformamide), 1 hour at room temperature, concentration 0.3 M), and a tripeptide with palmitic acid covalently bonded to the N-terminus (i.e., palmitoyl tripeptide) was synthesized. After that, the test substance (tripeptide with palmitic acid covalently bonded to the N-terminus) was applied to the hair and the tensile strength was compared using the same method as in ‘Experimental Example 3. (1) Measurement of tensile strength’.

[3] = Tensile strength of heat-treated hair simulating eyebrows (Fibra.one); design: species or system human; settings: hair heat-treated at 160° C. 20 times, then 0.01 wt % test substance in purified water, about 30 minutes; FIG. 9
Procedure: (§2) Specifically, since it is difficult to obtain eyebrows to be used for evaluation directly from a living body, human hair corresponding to the thickness of eyebrows was selected through Fibra.one (manufactured by DiaStron). The length was prepared to a level that can be applied to a machine measuring tensile strength. Heat-treated hair was prepared by applying pressure by hand at 160° C. 20 times with a hair straightener to the prepared human hair tresses. Hair that had not been heat-treated was prepared as a control group (untreated hair in FIGS. 9 and 11). In Experimental Example 6, the untreated hair was not treated with the test substance.
(§3) After that, the heat-treated hair tresses were treated with the test substance, KCV (KCV-treated hair in FIGS. 9 and 11). Specifically, the prepared tresses (1 g, manufactured by Beaulax) were washed using a basic cleanser without conditioning function, rinsed for 1 minute, and dried for 2 minutes. […]
Specifically, 30 hair strands were randomly selected from each tress (KCV-treated hair) treated with the test substance. […] The tensile strength of each selected hair was measured using a Fibra.one (manufactured by DiaStron).

[4] = Elasticity (horizontal resistance) of heat-treated hair simulating eyebrows; design: species or system human; settings: hair heat-treated at 160° C. 20 times, then 0.01 wt % test substance in purified water, about 30 minutes; FIG. 11
Procedure: as §2, §3
The elasticity of KCV-treated hair, heat-damaged hair, and untreated hair was compared. Elasticity was defined as the horizontal resistance of hair, and elasticity was measured through each step of [Method for Measuring Hair Elasticity] below (see FIG. 10). […]

[5] = Penetration and binding in hair by confocal microscopy; settings: fluorescent substance applied to hair, FIG. 6, FIG. 7
Description: A green fluorescent substance (FITC; Fluorescein isothiocyanate) was conjugated to palmitoyl-CWK, a tripeptide (i.e., palmitoyl tripeptide) covalently bound to palmitic acid at the N-terminus (fluorescent labeling) and applied to hair. After that, the change in hair structure that affects the increase in hair tensile strength was confirmed by comparing the colored areas using a confocal microscopy.
Meanwhile, for comparison of hair penetration routes, the water-soluble fluorescent substance 5-(4-Dimethylaminobenzylidene) rhodanine was applied to the hair, and the colored area (indicated in gray in FIG. 7) was confirmed using a confocal microscope.

Compound	denaturation enthalpy of hair structural protein compared to control hair [1]	tensile strength of hair compared to control bleached hair tresses [2]	other results
palmitoyl-CWK [pal-CWK]	significantly increased	significantly increased	–
KCV	–	significantly increased	tensile strength (break load) per area compared to heat-damaged hair tresses [3]: significantly increased; elasticity compared to heat-damaged hair tresses [4]: significantly increased
KCL	–	significantly increased	–
CKF	–	significantly increased	–
CN(C)c1ccc(C=C2SC(=S)NC2=O)cc1 [5-(4-Dimethylaminobenzylidene) rhodanine]	–	–	penetration and binding in hair (colored areas) [5]: barely remained in the cuticle layer on the hair surface and did not fill the lost area of CMC inside the hair
PCP [reference compound]	–	not significant	–
palmitoyl-KCV [pal-KCV]	significantly increased	significantly increased	–
CWK	significantly increased	significantly increased	–
palmitoyl-CKF [pal-CKF]	significantly increased	significantly increased	–
